How the values were obtained:
KRAS-G2D/SOS1 = KRAS-G2D/SOS1 (Homo sapiens, UniProt P01116, G12D); assay: KRAS-G2D/SOS1 binding experiment (HTRF); conditions: His-tagged G12D protein and Tag1-SOS protein, room temperature
Method: • A) Dilute Tagged-His Tag G12D protein and Tag1-SOS protein with diluent at 1:100, and use detection buffer for anti-Tag1-Tb3+ antibody and anti-Tag2-XL665 at 1:100 or 1:25, respectively Dilute. • B) Dilute the compound to be tested with diluent starting from […] concentration, 4 times gradient, a total of 6 concentration gradients, and dilute to 10× stock solution. • C) In a 96-well plate, add 4 uL Tagged-His Tag G12D protein, 4 uL Tag1-SOS protein, 2 ul dilution solution (positive control) or test compound (different concentrations of 10× stock solution) to each well in sequence, a total of 10 ul, and incubate at room temperature for […], add pre-mixed 5 uL anti-Tag1-Tb3+ and 5 uL anti-Tag2-xL665, seal the plate, incubate at room temperature for 2 hours, and read the HTRF signal with a TECAN INFINITEF NANO+ microplate reader.
The ratio of […] and donor excitation signals for each single well was calculated using the formula ratio=665 nm signal value/620 nm signal value×[…]. Data were processed using Graphpadprism5 software. IC50 values were calculated by sigmoidal dose-response curve fitting.

[1] = tested on: ATCC CRL-1739 (KRASG^12D mutant) cells; assay: Tumor cell proliferation inhibition experiment (Cell Titer-Glo, 72 hours); format: cell-based; conditions: 72 hours incubation, 10% fetal bovine serum, ATP content
Method: The ATCC CRL-1739 (KRASG^12D mutant) cells were digested, centrifuged and resuspended, and the cell density was measured with a Scepter automatic cell counter. The cells were diluted to a solution containing 44,000 cells per milliliter, and the density-adjusted cell solution was 90 per well. Microliters were added to a 96-well culture plate. The 96-well plate was placed in a 37° C., 5% CO2 incubator. After the cells were cultured for 24 hours, different concentrations of the compounds to be tested were added. The cells were incubated with the compounds for 72 hours in the presence of 10% fetal bovine serum. Glo Luminescent Cell Viability Assay Kit (see manufacturer's instructions for details) was used to measure ATP content to assess cell growth inhibition. Briefly, 30 μl of Cell Titer-Glo reagent was added to each well, and the plate was shaken for 10 minutes to induce cell lysis. FluoroskanAscentFL (Thermo) assay records the […], and the maximum signal value is obtained from cells treated with DMSO for 72 hours. The minimum signal value was obtained from the medium alone (the number of cells was zero), and the % inhibition rate=(the maximum signal value compound signal value)/(the maximum signal value−the minimum signal value×100%, and the data were processed using Graphpadprism 5 software. By sigmoid Dose-response curve fitting to calculate IC50 value. “A” means IC50≤50 nM; “B” means 50<IC50≤500 nM; “C” means 500<IC50≤2000 nM; “D” means 2000<IC50

Chain of KRAS-G2D/SOS1 (P01116 1-188 isoform P01116-2 G12D): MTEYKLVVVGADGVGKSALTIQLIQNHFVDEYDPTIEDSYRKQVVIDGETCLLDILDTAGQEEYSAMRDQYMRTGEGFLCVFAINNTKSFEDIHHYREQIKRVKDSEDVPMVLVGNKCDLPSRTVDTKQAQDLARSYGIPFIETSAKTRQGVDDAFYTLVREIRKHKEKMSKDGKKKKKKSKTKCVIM

**Q.** For `Oc1cc(-c2nc3nc(OC[C@@]45CCCN4C[C@H](F)C5)nc(N4C5CNCC4C5)c3cc2F)c2c(F)cccc2c1` [Compound 54, 4-(4-(3,6-diazabicyclo [3.1.1]heptan-6-y1)-6-fluoro-2-(((2R,7aS)-2-fluorohexahydro-1H-pyrrolizin-7a-yl)methoxy)pyrido[2,3-d]pyrimidin-7-y1)-5-fluoronaphthalen-2-ol], which IC50 (KRAS-G2D/SOS1) is on record?
**A.** The IC50 was no more than 50 nM.

**Q.** What about the IC50 [1] of the same compound?
**A.** The IC50 was no more than 50 nM.

**Q.** With `C[C@@H]1CNCCN1c1nc(OC[C@@H]2CCCN2C)nc2nc(-c3c(O)cccc3F)c(F)cc12` [Compound 7, 3-fluoro-2-(6-fluoro-4-((R)-2-methylpiperazin-1-yl)-2-(((S)-1-methylpyrrolidin-2-yl)methoxy)pyrido [2,3-d]pyrimidin-7-yl)phenol] as the compound, how does the IC50 (KRAS-G2D/SOS1) read?
**A.** The IC50 was greater than 500 nM.

**Q.** And the IC50 [1]?
**A.** Its IC50 is greater than 2000 nM.

**Q.** Which IC50 (KRAS-G2D/SOS1) does the source give for `C[C@@H]1CNCCN1c1nc(OC[C@@H]2CCCN2C)nc2nc(-c3cccc4cccc(Cl)c34)c(F)cc12` [Compound 34, 7-(8-chloronaphthalen-1-yl)-6-fluoro-4-((R)-2-methylpiperazin-1-yl)-2-(((S)-1-methylpyrrolidin-2-yl)methoxy)pyrido [2,3-d]pyrimidine] here?
**A.** The IC50 was 50 to 500 nM.

**Q.** What about the IC50 [1] of the same compound?
**A.** Its IC50 is 500 to 2000 nM.

**Q.** Which results are given for `C[C@@H]1CNCCN1c1nc(OC[C@@H]2CCCN2C)nc2nc(-c3cccc4cccc(F)c34)c(F)cc12` [Compound 33, 6-fluoro-7-(8-fluoronaphthalen-1-y1)-4-((R)-2-methylpiperazin-1-y1)-2-(((S)-1-methylpyrrolidin-2-yl)methoxy)pyrido [2,3-d]pyrimidine]?
**A.** IC50 (KRAS-G2D/SOS1): 50 to 500 nM; IC50 [1]: 50 to 500 nM

**Q.** With `C[C@@H]1CNCCN1c1nc(OC[C@@H]2CCCN2C)nc2nc(-c3cc(O)cc4ccccc34)c(F)cc12` [Compound 36, 4-(6-fluoro-4-((R)-2-methylpiperazin-1-yl)-2-(((S)-1-methylpyrrolidin-2-yl)methoxy)pyrido [2,3-d]pyrimidin-7-yl)naphthalen-2-ol] as the compound, how does the IC50 (KRAS-G2D/SOS1) read?
**A.** The IC50 was no more than 50 nM.

**Q.** What about the IC50 [1] of the same compound?
**A.** The IC50 was greater than 2000 nM.

**Q.** How did the IC50 (KRAS-G2D/SOS1) turn out when `C#Cc1c(F)ccc2cc(O)cc(-c3nc4nc(OC[C@@]56CCCN5C[C@H](F)C6)nc(N5C[C@H]6CC[C@@H](C5)N6)c4cc3F)c12` [Compound 58, 4-(4-((1R,5S)-3,8-diazabicyclo[3.2.1]octan-3-yl)-6-fluoro-2-(((2R,7aS)-2-fluorotetrahydro-1H-pyrrolizin-7a(5H)-yl)methoxy)pyrido[2,3-d]pyrimidin-7-yl)-5-ethynyl-6-fluoronaphthalen-2-ol] was run?
**A.** Its IC50 is no more than 50 nM.

**Q.** And the IC50 [1]?
**A.** The IC50 was no more than 50 nM.

**Q.** For `C[C@@H]1CNCCN1c1nc(OC[C@@H]2CCCN2C)nc2nc(-c3cc(O)cc4cccc(F)c34)c(F)cc12` [Compound 46, 5-fluoro-4-(6-fluoro-4-((R)-2-methylpiperazin-1-yl)-2-(((S)-1-methylpyrrolidin-2-yl)methoxy)pyrido [2,3-d]pyrimidin-7-yl)naphthalen-2-ol], which IC50 (KRAS-G2D/SOS1) is on record?
**A.** The IC50 was no more than 50 nM.

**Q.** What about the IC50 [1] of the same compound?
**A.** The IC50 was no more than 50 nM.

**Q.** With `C[C@@H]1CNCCN1c1nc(NCCN(C)C)nc2nc(-c3c(O)cccc3F)c(F)cc12` [Compound 1, 2-(2-((2-(dimethylamino)ethyl)amino)-6-fluoro-4-((R)-2-methylpiperazin-1-yl)pyrido[2,3-d]pyrimidin-7-yl)-3-fluorophenol] as the compound, how does the IC50 (KRAS-G2D/SOS1) read?
**A.** Its IC50 is greater than 500 nM.

**Q.** What about the IC50 [1] of the same compound?
**A.** The IC50 was greater than 2000 nM.

**Q.** For `Oc1cc(-c2nc3nc(OC[C@@]45CCCN4C[C@H](F)C5)cc(N4C[C@H]5CC[C@@H](C4)N5)c3cc2F)c2c(F)cccc2c1` [Compound 57, 4-(5-((1R,5S)-3,8-diazabicyclo[3.2.1]octan-3-yl)-3-fluoro-7-(((2R,7aS)-2-fluorohexahydro-1H-pyrrolizin-7a-yl)methoxy)-1,8-naphthyridin-2-yl)-5-fluoronaphthalen-2-ol], which IC50 (KRAS-G2D/SOS1) is on record?
**A.** The IC50 was no more than 50 nM.

**Q.** What about the IC50 [1] of the same compound?
**A.** Its IC50 is no more than 50 nM.
